In patent US20250032641A1, “IMMUNE- STIMULATING COMPOUNDS LINKED TO GLYCOGEN-BASED POLYSACCHARIDE NANOPARTICLES FOR SENSITIZING CANCER CELLS TO A CHEMOTHERAPEUTIC DRUG” (GLYSANTIS BIOTECH INC., priority 2020, published 2025):

Experiments:
[1] = system: IFN-beta, ISG15, CXCL10 transcripts in SKOV3, SKBR3, MCF7, HeLa, B16F10 cells; assay: qRT-PCR transcript levels of interferon-stimulated genes / innate immune response in cancer cell lines; assay type: cell-based, human; settings: cancer cells (Breast, Ovarian, Cervical, Melanoma); same doses bound and unbound
Procedure: SKOV-3 cells were treated with media alone (CTRL), 125 ng/ml of pI:pC, or 125 ng/mL of poly IC complexed with 250 ng/ml of PhG (poly IC:PhG) for 6 hours. Transcript levels were measured using qRT-PCR.
SKRBR-3 cells were treated with media alone (CTRL), 2.5 μg/mL of pI:pC, or 2.5 μg/mL of poly IC complexed with 5 μg/mL of PhG (poly IC:PhG) for 6 hours. Transcript levels were measured using qRT-PCR.
MCF-7 cells were treated with media alone (CTRL), 5 μg/mL of pI:pC, or 5 μg/mL of poly IC complexed with 10 μg/mL of PhG (poly IC:PhG) for 6 hours. Transcript levels were measured using qRT-PCR.
HeLa cells were treated with media alone (CTRL), 5 μg/mL of pI:pC, or 5 μg/mL of poly IC complexed with 10 μg/mL of PhG (poly IC:PhG) for 6 hours. Transcript levels were measured using qRT-PCR.
Hela cells were treated with media alone (CTRL), 5 μg/mL of pI:pC, or 5 μg/mL of poly IC complexed with 10 μg/mL of PhG (poly IC:PhG) for 6 hours. Transcript levels were measured using qRT-PCR. […]
Cells were plated in 6-well plates at 1×10E6 cells per well in DMEM and allowed to attach overnight. […] All transcripts were normalized to actin and quantified relative to mock treated.

[2] = system: pI:pC resistant SKOV-3 cells; assay: Cell viability by alamar blue, carboplatin alone or combined with free or nanoparticle bound pI:pC; assay type: cell-based; settings: carboplatin combination, 72 hours
Procedure: Twenty-four (24) hours post seeding, cells were left untreated, or treated with EC50 carboplatin, 125 ng/ml pI:pC, 125 ng/ml pI:pC ionically bound to glycogen nanoparticles (1:1 w/w), or the combination of EC50 carboplatin and 125 ng/ml pI:pC, or EC50 carboplatin and 125 ng/ml nanoparticle bound pI:pC, and cell viability was measured after 72 hours incubation.
Cell viability was measured by alamar blue of pI:pC resistant SKOV-3 cells treated with carboplatin alone, or in combination with “free” pI:pC or glycogen nanoparticle bound pI:pC. SKOV-3 cells were plated in a 12-well dish at 1.5×10^6 per well. Twenty-four (24) hours post seeding, cells were left untreated, or treated with EC50 carboplatin, 125 ng/ml pI:pC, 125 ng/ml pI:pC ionically bound to glycogen nanoparticles (1:1 w/w), or the combination of EC50 carboplatin and 125 ng/ml pI:pC, or EC50carboplatin and 125 ng/ml nanoparticle bound pI:pC. Cells were incubated at 37° C., 5% CO2 for 72 hours, and cell viability was measured by alamar blue assay according to the manufacturer's protocol (Invitrogen).

Q: “polyinosinic:polycytidylic acid [unbound pI:pC]” was tested. Which innate immune response [1] did it give?
A: Its innate immune response is “ineffective”.

Q: What about the “sensitization of pI:pC resistant cells to a chemotherapeutic drug” value [2] of the same substance?
A: Its value is “ineffective”.
